Key:
[1] = molecular target: T1, human DHODH (Homo sapiens, UniProt Q02127); test: DHODH Enzymatic Assay; assay type: biochemical; conditions: purified human DHODH; DCIP absorbance, end-point mode
T1 construct: purchased Proteros PR-0044
Summary of the method: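 Purified human DHODH activity read as absorbance of DCIP, the terminal electron acceptor, in […] pH 7.5, 150 mM NaCl, 0.5 mM EDTA, 0.1% Triton X-100. Reaction started with a substrate mix of 20 mM DHO, 5 mM CoQ6 and 1 mM DCIP in assay buffer.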

[2] = tested on: MOLM-13 cells; test: MOLM-13 Cellular Assay; assay type: cell-based; conditions: Homo sapiens, 72 hours exposure, cell viability by CellTiter-Glo
Method: The day prior to assay set-up, cells were pelleted, resuspended in fresh media, counted, and cells were plated at 0.4×10^6 cell/mL in a T150 flask. […] Cells were exposed to different concentrations of test compounds at 37° C., 5% CO2 for 72 hours immediately after seeding.

T1 sequence (Q02127 whole entry): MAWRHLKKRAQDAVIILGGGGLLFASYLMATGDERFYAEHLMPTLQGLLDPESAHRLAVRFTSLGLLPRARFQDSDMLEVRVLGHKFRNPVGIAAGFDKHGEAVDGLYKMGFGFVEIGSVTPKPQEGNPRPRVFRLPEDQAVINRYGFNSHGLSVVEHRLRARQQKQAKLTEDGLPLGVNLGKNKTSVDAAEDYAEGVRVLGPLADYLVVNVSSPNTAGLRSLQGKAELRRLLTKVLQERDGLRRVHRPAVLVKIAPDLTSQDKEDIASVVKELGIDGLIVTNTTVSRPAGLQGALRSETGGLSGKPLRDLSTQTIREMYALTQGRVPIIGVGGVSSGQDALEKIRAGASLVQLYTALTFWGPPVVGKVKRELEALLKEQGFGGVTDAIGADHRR

Row | Structure (SMILES) | EC50 [1] [nM] | EC50 [2] [nM]
1 | CCn1c(CO)nn(-c2nc(O[C@@H](C)C(F)(F)F)c(C(=O)Nc3c(C)cc(OC)nc3Cl)cc2F)c1=O [Example 106, N-(2-Chloro-6-methoxy-4-methyl-3-pyridyl)-6-[4-ethyl-3-(hydroxymethyl)-5-oxo-1,2,4-triazol-1-yl]-5-fluoro-2-[(1S)-2,2,2-trifluoro-1-methyl-ethoxy]pyridine-3-carboxamide] | 2.9 | 0.792
2 | Cc1[nH]nc(Cl)c1NC(=O)c1cc(F)c(-n2nc(CF)n(CCCO)c2=O)nc1O[C@@H](C)C(F)(F)F [Example 107, N-(3-Chloro-5-methyl-1H-pyrazol-4-yl)-5-fluoro-6-[3-(fluoromethyl)-4-(3-hydroxypropyl)-5-oxo-1,2,4-triazol-1-yl]-2-[(1S)-2,2,2-trifluoro-1-methyl-ethoxy]pyridine-3-carboxamide] | 18.1 | 1.5
3 | CCn1c(CF)nn(-c2nc(OC(C)C)c(C(=O)Nc3c(C)n[nH]c3Cl)cc2F)c1=O [Example 108, N-(5-Chloro-3-methyl-1H-pyrazol-4-yl)-6-[4-ethyl-3-(fluoromethyl)-5-oxo-1,2,4-triazol-1-yl]-5-fluoro-2-isopropoxy-pyridine-3-carboxamide] | 0.851 | 0.17
4 | CCn1c(CO)nn(-c2nc(O[C@@H](C)C(F)(F)F)c(C(=O)Nc3ccnnc3OC)cc2F)c1=O [Example 109, 6-[4-Ethyl-3-(hydroxymethyl)-5-oxo-1,2,4-triazol-1-yl]-5-fluoro-N-(3-methoxypyridazin-4-yl)-2-[(1S)-2,2,2-trifluoro-1-methyl-ethoxy]pyridine-3-carboxamide] | > 100 | > 100
5 | CCn1c(CO)nn(-c2nc(O[C@@H](C)C(F)(F)F)c(C(=O)Nc3c(Cl)cnc(OC)c3C)cc2F)c1=O [Example 110, N-(5-Chloro-2-methoxy-3-methyl-4-pyridyl)-6-[4-ethyl-3-(hydroxymethyl)-5-oxo-1,2,4-triazol-1-yl]-5-fluoro-2-[(1S)-2,2,2-trifluoro-1-methyl-ethoxy]pyridine-3-carboxamide] | 0.367 | 0.282
6 | CCn1c(CO)nn(-c2nc(O[C@@H](C)C(F)(F)F)c(C(=O)Nc3c(C)n[nH]c3C(F)(F)F)cc2F)c1=O [Example 111, 6-[4-Ethyl-3-(hydroxymethyl)-5-oxo-1,2,4-triazol-1-yl]-5-fluoro-N-[3-methyl-5-(trifluoromethyl)-1H-pyrazol-4-yl]-2-[(1S)-2,2,2-trifluoro-1-methyl-ethoxy]pyridine-3-carboxamide] | 1.93 | 0.345
7 | CCn1c(CO)nn(-c2nc(O[C@@H](C)C(F)(F)F)c(C(=O)Nc3c(Cl)n[nH]c3C(F)(F)F)cc2F)c1=O [Example 112, N-[3-Chloro-5-(trifluoromethyl)-1H-pyrazol-4-yl]-6-[4-ethyl-3-(hydroxymethyl)-5-oxo-1,2,4-triazol-1-yl]-5-fluoro-2-[(1S)-2,2,2-trifluoro-1-methyl-ethoxy]pyridine-3-carboxamide] | 4.12 | 0.303
8 | CCn1c(CO)nn(-c2nc(O[C@@H](C)C(F)(F)F)c(C(=O)Nc3c(C)cc(Cl)nc3OC)cc2F)c1=O [Example 113, N-(6-Chloro-2-methoxy-4-methyl-3-pyridyl)-6-[4-ethyl-3-(hydroxymethyl)-5-oxo-1,2,4-triazol-1-yl]-5-fluoro-2-[(1S)-2,2,2-trifluoro-1-methyl-ethoxy]pyridine-3-carboxamide] | 1.07 | 0.416
9 | CCn1c(CO)nn(-c2nc(O[C@@H](C)C(F)(F)F)c(C(=O)Nc3c(C)cc(C)nc3OC)cc2F)c1=O [Example 114, 6-[4-Ethyl-3-(hydroxymethyl)-5-oxo-1,2,4-triazol-1-yl]-5-fluoro-N-(2-methoxy-4,6-dimethyl-3-pyridyl)-2-[(1S)-2,2,2-trifluoro-1-methyl-ethoxy]pyridine-3-carboxamide] | 0.415 | 0.368
10 | Cc1n[nH]c(Cl)c1NC(=O)c1cc(F)c(-n2nc(CF)n(CCO)c2=O)nc1O[C@@H](C)C(F)(F)F [Example 115, N-(5-Chloro-3-methyl-1H-pyrazol-4-yl)-5-fluoro-6-[3-(fluoromethyl)-4-(2-hydroxyethyl)-5-oxo-1,2,4-triazol-1-yl]-2-[(1S)-2,2,2-trifluoro-1-methyl-ethoxy]pyridine-3-carboxamide] | 4.1 | 1.25
11 | Cc1ccnc(Cl)c1NC(=O)c1cc(F)c(-n2nc(CF)n(CCO)c2=O)nc1O[C@@H](C)C(F)(F)F [Example 116, N-(2-Chloro-4-methyl-3-pyridyl)-5-fluoro-6-[3-(fluoromethyl)-4-(2-hydroxyethyl)-5-oxo-1,2,4-triazol-1-yl]-2-[(1S)-2,2,2-trifluoro-1-methyl-ethoxy]pyridine-3-carboxamide] | 20.5 | 7.23
12 | CCn1c(CO)nn(-c2nc(O[C@@H](C)C(F)(F)F)c(C(=O)Nc3c(F)cnc(OC)c3C#N)cc2F)c1=O [Example 117, N-(3-Cyano-5-fluoro-2-methoxy-4-pyridyl)-6-[4-ethyl-3-(hydroxymethyl)-5-oxo-1,2,4-triazol-1-yl]-5-fluoro-2-[(1S)-2,2,2-trifluoro-1-methyl-ethoxy]pyridine-3-carboxamide] | 1.03 | 15.6
13 | CCn1c(CO)nn(-c2nc(O[C@@H](C)C(F)(F)F)c(C(=O)Nc3ncc(OC)cc3Cl)cc2F)c1=O [Example 118, N-(3-Chloro-5-methoxy-2-pyridyl)-6-[4-ethyl-3-(hydroxymethyl)-5-oxo-1,2,4-triazol-1-yl]-5-fluoro-2-[(1S)-2,2,2-trifluoro-1-methyl-ethoxy]pyridine-3-carboxamide] | 4.64 | 6.38
14 | CCn1c(CO)nn(-c2nc(O[C@@H](C)C(F)(F)F)c(C(=O)Nc3c(OC)cccc3OC)cc2F)c1=O [Example 119, N-(2,6-Dimethoxyphenyl)-6-[4-ethyl-3-(hydroxymethyl)-5-oxo-1,2,4-triazol-1-yl]-5-fluoro-2-[(1S)-2,2,2-trifluoro-1-methyl-ethoxy]pyridine-3-carboxamide] | 2.25 | 1.48
15 | CCn1c(CO)nn(-c2nc(O[C@@H](C)C(F)(F)F)c(C(=O)Nc3ccccc3C)cc2F)c1=O [Example 120, 6-[4-Ethyl-3-(hydroxymethyl)-5-oxo-1,2,4-triazol-1-yl]-5-fluoro-N-(o-tolyl)-2-[(1S)-2,2,2-trifluoro-1-methyl-ethoxy]pyridine-3-carboxamide] | 0.246 | < 0.169
16 | CCn1c(CO)nn(-c2nc(O[C@@H](C)C(F)(F)F)c(C(=O)Nc3c(OC)n[nH]c3C)cc2F)c1=O [Example 121, 6-[4-Ethyl-3-(hydroxymethyl)-5-oxo-1,2,4-triazol-1-yl]-5-fluoro-N-(3-methoxy-5-methyl-1H-pyrazol-4-yl)-2-[(1S)-2,2,2-trifluoro-1-methyl-ethoxy]pyridine-3-carboxamide] | 23 | 2.47
17 | CCn1c(CO)nn(-c2nc(O[C@@H](C)C(F)(F)F)c(C(=O)Nc3c(OC)cncc3OC)cc2F)c1=O [Example 122, N-(3,5-Dimethoxy-4-pyridyl)-6-[4-ethyl-3-(hydroxymethyl)-5-oxo-1,2,4-triazol-1-yl]-5-fluoro-2-[(1S)-2,2,2-trifluoro-1-methyl-ethoxy]pyridine-3-carboxamide] | > 100 | 9.1
18 | CCn1c(CO)nn(-c2nc(O[C@@H](C)C(F)(F)F)c(C(=O)Nc3c(Cl)n[nH]c3Cl)cc2F)c1=O [Example 123, N-(3,5-Dichloro-1H-pyrazol-4-yl)-6-[4-ethyl-3-(hydroxymethyl)-5-oxo-1,2,4-triazol-1-yl]-5-fluoro-2-[(1S)-2,2,2-trifluoro-1-methyl-ethoxy]pyridine-3-carboxamide] | 2.46 | 0.208
19 | CCn1c(CO)nn(-c2nc(O[C@@H](C)C(F)(F)F)c(C(=O)Nc3c(C(F)F)n[nH]c3C)cc2F)c1=O [Example 124, N-[3-(Difluoromethyl)-5-methyl-1H-pyrazol-4-yl]-6-[4-ethyl-3-(hydroxymethyl)-5-oxo-1,2,4-triazol-1-yl]-5-fluoro-2-[(1S)-2,2,2-trifluoro-1-methyl-ethoxy]pyridine-3-carboxamide] | 3.31 | 0.371
20 | CCn1c(CO)nn(-c2nc(O[C@@H](C)C(F)(F)F)c(C(=O)Nc3c(F)ccnc3OC)cc2F)c1=O [Example 125, 6-[4-Ethyl-3-(hydroxymethyl)-5-oxo-1,2,4-triazol-1-yl]-5-fluoro-N-(4-fluoro-2-methoxy-3-pyridyl)-2-[(1S)-2,2,2-trifluoro-1-methyl-ethoxy]pyridine-3-carboxamide] | 3.69 | 1.11
21 | CCn1c(CO)nn(-c2nc(O[C@@H](C)C(F)(F)F)c(C(=O)Nc3c(Cl)ccnc3OC)cc2F)c1=O [Example 126, N-(4-Chloro-2-methoxy-3-pyridyl)-6-[4-ethyl-3-(hydroxymethyl)-5-oxo-1,2,4-triazol-1-yl]-5-fluoro-2-[(1S)-2,2,2-trifluoro-1-methyl-ethoxy]pyridine-3-carboxamide] | 0.312 | 0.328
22 | CCn1c(C(C)(C)O)nn(-c2nc(O[C@@H](C)C(F)(F)F)c(C(=O)Nc3c(C)n[nH]c3C(F)(F)F)cc2F)c1=O [Example 128, 6-[4-Ethyl-3-(1-hydroxy-1-methyl-ethyl)-5-oxo-1,2,4-triazol-1-yl]-5-fluoro-N-[3-methyl-5-(trifluoromethyl)-1H-pyrazol-4-yl]-2-[(1S)-2,2,2-trifluoro-1-methyl-ethoxy]pyridine-3-carboxamide] | 9.55 | 4.46

— US20220089568A1 (Janssen Biotech, Inc., priority 2019, published 2022)
